Source: patent publication US20100239639A1, “MEDICATED PATCH” (HISAMITSU PHARMACEUTICAL CO., INC., priority 2007, published 2010)

Assay: Solubility test of BM-DBM
Assay type: physicochemical
Conditions: 1 g BM-DBM mixed with 2 g additive, dissolved at 140° C., cooled to room temperature for 30 min
Experimental: 1 g of BM-DBM was mixed with 2 g of an additive, dissolved at 140° C., then the mixture was cooled to room temperature for 30 min and its state was observed.

With `CCCCCCCCCCCC(=O)OCCCCCC` [Hexyl laurate] the “Solubility of BM-DBM” value was “◯” and the “solubility of BM-DBM (in words)” value was “particularly good solubility of BM-DBM”.
